Experimental data from patent US20240132484A1, “BROAD SPECTRUM ANTIVIRAL COMPOUNDS TARGETING THE SKI COMPLEX” (priority 2020, published 2024).
Values joined by “and” are separate entries in the source; they are usually repeats but may differ in a detail not shown here. Equal values may be shown once. Read-outs that look alike come from different tables or passages of the source.

Key:
[1] = test system: SARS2; assay type: cell-based, SARS-CoV-2; conditions: for Percentage Infection Relative to Appropriate DMSO Control with Avg Background Subtraction: Nunc Celigo plates, listed as SICLS39; for Percentage Inhibition Average 1 μM / Screening data (Relative infection to DMSO controls) Average 1 μM: SARS2, 1 μM; for Screening data (Relative infection to DMSO controls) Average 1 μM / Screening data (Relative infection to DMSO controls) Average 5 μM / Screening data (Relative infection to DMSO controls) Average 10 μM / Screening data (Relative infection to DMSO controls) Average 25 μM / Screening data (Relative infection to DMSO controls) Average 50 μM / Average (relative infection to DMSO over the 5 tested concentrations): 100=DMSO control; for Percentage Inhibition Average 5 μM / Screening data (Relative infection to DMSO controls) Average 5 μM: SARS2, 5 μM; for Percentage Inhibition Average 10 μM / Screening data (Relative infection to DMSO controls) Average 10 μM: SARS2, 10 μM; for Percentage Inhibition Average 25 μM / Screening data (Relative infection to DMSO controls) Average 25 μM: SARS2, 25 μM; for Percentage Inhibition Average 50 μM / Screening data (Relative infection to DMSO controls) Average 50 μM: SARS2, 50 μM; for Average (relative infection to DMSO over the 5 tested concentrations): SARS2, average over 1 to 50 uM; for Infection Data, Average, Mean: average of Exp 1-2 (SMW491, SMW492); for Infection Data, Average, Mean percentage infection relative to DMSO control: Average of Exp 1 (SMW506) and Exp 2 (SMW507); for Infection Data, Percentage Infection Relative to Appropriate DMSO Control: single well, avg background subtraction
[2] = test system: cells (nuclei count); conditions: for Relative cell count to DMSO controls, Average 1 μM / Relative cell count to DMSO controls, Average 5 μM / Relative cell count to DMSO controls, Average 10 μM / Relative cell count to DMSO controls, Average 25 μM / Relative cell count to DMSO controls, Average 50 μM: toxicity data, 100=DMSO control; for Toxicity Data, Average, Mean percentage relative to DMSO control: Average of Exp 1 (SMW491) and Exp 2 (SMW492); for Relative cell count to DMSO controls, Average (for correlation analysis): average value over the 5 tested concentrations (1 to 50 uM); for Toxicity Data, Average, Mean (percentage relative to appropriate DMSO control): average of Exp 1 and Exp 2, n=4; for Toxicity Data, Percentage Relative to Appropriate DMSO Control: single well

CCN(CC)CCN(Cc1cc(C)c(Br)s1)Cc1cc(C)c(Br)s1 [SILCS39]
Percentage Infection Relative to Appropriate DMSO Control with Avg Background Subtraction ([1]; Exp 1 (SMW491), 1 uM): 94.45% and 94.76%
Percentage Infection Relative to Appropriate DMSO Control with Avg Background Subtraction ([1]; Exp 1 (SMW491), 5 uM): 61.21% and 63.14%
Percentage Infection Relative to Appropriate DMSO Control with Avg Background Subtraction ([1]; Exp 1 (SMW491), 10 uM): 26.66% and 13.52%
Percentage Infection Relative to Appropriate DMSO Control with Avg Background Subtraction ([1]; Exp 1 (SMW491), 25 uM): 1.98% and 2.03%
Percentage Infection Relative to Appropriate DMSO Control with Avg Background Subtraction ([1]; Exp 2 (SMW492), 1 uM): 55.17% and 68.37%
Percentage Infection Relative to Appropriate DMSO Control with Avg Background Subtraction ([1]; Exp 2 (SMW492), 5 uM): 40.93% and 42.02%
Percentage Infection Relative to Appropriate DMSO Control with Avg Background Subtraction ([1]; Exp 2 (SMW492), 10 uM): 21.95% and 19.13%
Percentage Infection Relative to Appropriate DMSO Control with Avg Background Subtraction ([1]; Exp 2 (SMW492), 25 uM): 5.42% and 6.99%
Percentage Infection Relative to Appropriate DMSO Control with Avg Background Subtraction ([1]; Exp 2 (SMW492), 50 uM): 5.19% and 10.37%
Percentage Inhibition Average 1 μM [1]: 21.81%
Screening data (Relative infection to DMSO controls) Average 1 μM [1]: 78.19
Percentage Inhibition Average 5 μM [1]: 48.17%
Screening data (Relative infection to DMSO controls) Average 5 μM [1]: 51.83
Percentage Inhibition Average 10 μM [1]: 79.68%
Screening data (Relative infection to DMSO controls) Average 10 μM [1]: 20.32
Percentage Inhibition Average 25 μM [1]: 95.89%
Screening data (Relative infection to DMSO controls) Average 25 μM [1]: 4.11
Percentage Inhibition Average 50 μM [1]: 93.60%
Screening data (Relative infection to DMSO controls) Average 50 μM [1]: 6.40
Average (relative infection to DMSO over the 5 tested concentrations) [1]: 32.17
Infection Data, Average, Mean ([1]; n 4, 1 uM): 78.19%
Infection Data, Average, Mean ([1]; n 4, 5 uM): 51.83%
Infection Data, Average, Mean ([1]; n 4, 10 uM): 20.32%
Infection Data, Average, Mean ([1]; n 4, 25 uM): 4.11%
Infection Data, Average, Mean ([1]; n 4, 50 uM): 6.40%
Relative cell count to DMSO controls, Average 1 μM [2]: 107.69
Relative cell count to DMSO controls, Average 5 μM [2]: 114.94
Relative cell count to DMSO controls, Average 10 μM [2]: 149.83
Relative cell count to DMSO controls, Average 25 μM [2]: 128.15
Relative cell count to DMSO controls, Average 50 μM [2]: 46.35
Toxicity Data, Average, Mean percentage relative to DMSO control ([2]; n=4, 1 uM): 107.69%
Toxicity Data, Average, Mean percentage relative to DMSO control ([2]; n=4, 5 uM): 114.94%
Toxicity Data, Average, Mean percentage relative to DMSO control ([2]; n=4, 10 uM): 149.83%
Toxicity Data, Average, Mean percentage relative to DMSO control ([2]; n=4, 25 uM): 128.15%
Toxicity Data, Average, Mean percentage relative to DMSO control ([2]; n=4, 50 uM): 46.35%
Relative cell count to DMSO controls, Average (for correlation analysis) [2]: 109.39

COc1ccc(CNCCc2ccccc2F)c(OCC(O)CN2CCOCC2)c1 (centres unmarked) [SILCS49]
Infection Data, Average, Mean percentage infection relative to DMSO control ([1]; n=4, 1 uM): 90.24%
Infection Data, Average, Mean percentage infection relative to DMSO control ([1]; n=4, 5 uM): 54.75%
Infection Data, Average, Mean percentage infection relative to DMSO control ([1]; n=4, 10 uM): 29.10%
Infection Data, Average, Mean percentage infection relative to DMSO control ([1]; n=4, 25 uM): 27.11%
Infection Data, Average, Mean percentage infection relative to DMSO control ([1]; n=4, 50 uM): 13.54%
Infection Data, Percentage Infection Relative to Appropriate DMSO Control ([1]; Exp 1 (SMW506), 1 uM): 101.13% and 94.70%
Infection Data, Percentage Infection Relative to Appropriate DMSO Control ([1]; Exp 1 (SMW506), 5 uM): 55.30% and 50.40%
Infection Data, Percentage Infection Relative to Appropriate DMSO Control ([1]; Exp 1 (SMW506), 10 uM): 38.04% and 34.18%
Infection Data, Percentage Infection Relative to Appropriate DMSO Control ([1]; Exp 1 (SMW506), 25 uM): 27.25% and 33.31%
Infection Data, Percentage Infection Relative to Appropriate DMSO Control ([1]; Exp 1 (SMW506), 50 uM): 9.17% and 7.35%
Infection Data, Percentage Infection Relative to Appropriate DMSO Control ([1]; Exp 2 (SMW507), 1 uM): 67.31% and 97.84%
Infection Data, Percentage Infection Relative to Appropriate DMSO Control ([1]; Exp 2 (SMW507), 5 uM): 52.91% and 60.38%
Infection Data, Percentage Infection Relative to Appropriate DMSO Control ([1]; Exp 2 (SMW507), 10 uM): 23.33% and 20.87%
Infection Data, Percentage Infection Relative to Appropriate DMSO Control ([1]; Exp 2 (SMW507), 25 uM): 29.98% and 17.91%
Infection Data, Percentage Infection Relative to Appropriate DMSO Control ([1]; Exp 2 (SMW507), 50 uM): 19.58% and 18.05%
Percentage Inhibition Average 1 μM [1]: 9.76%
Screening data (Relative infection to DMSO controls) Average 1 μM [1]: 90.24
Percentage Inhibition Average 5 μM [1]: 45.25%
Screening data (Relative infection to DMSO controls) Average 5 μM [1]: 54.75
Percentage Inhibition Average 10 μM [1]: 70.90%
Screening data (Relative infection to DMSO controls) Average 10 μM [1]: 29.10
Percentage Inhibition Average 25 μM [1]: 72.89%
Screening data (Relative infection to DMSO controls) Average 25 μM [1]: 27.11
Percentage Inhibition Average 50 μM [1]: 86.46%
Screening data (Relative infection to DMSO controls) Average 50 μM [1]: 13.54
Average (relative infection to DMSO over the 5 tested concentrations) [1]: 42.95
Toxicity Data, Average, Mean (percentage relative to appropriate DMSO control) ([2]; 1 uM): 104.43%
Relative cell count to DMSO controls, Average 1 μM [2]: 104.43
Toxicity Data, Average, Mean (percentage relative to appropriate DMSO control) ([2]; 5 uM): 113.44%
Relative cell count to DMSO controls, Average 5 μM [2]: 113.44
Toxicity Data, Average, Mean (percentage relative to appropriate DMSO control) ([2]; 10 uM): 120.89%
Relative cell count to DMSO controls, Average 10 μM [2]: 120.89
Toxicity Data, Average, Mean (percentage relative to appropriate DMSO control) ([2]; 25 uM): 115.31%
Relative cell count to DMSO controls, Average 25 μM [2]: 115.31
Toxicity Data, Average, Mean (percentage relative to appropriate DMSO control) ([2]; 50 uM): 98.89%
Relative cell count to DMSO controls, Average 50 μM [2]: 98.89
Toxicity Data, Percentage Relative to Appropriate DMSO Control ([2]; Exp 1 (SMW506), 1 uM): 91% and 100%
Toxicity Data, Percentage Relative to Appropriate DMSO Control ([2]; Exp 1 (SMW506), 5 uM): 103% and 110%
Toxicity Data, Percentage Relative to Appropriate DMSO Control ([2]; Exp 1 (SMW506), 10 uM): 111% and 115%
Toxicity Data, Percentage Relative to Appropriate DMSO Control ([2]; Exp 1 (SMW506), 25 uM): 109% and 115%
Toxicity Data, Percentage Relative to Appropriate DMSO Control ([2]; Exp 1 (SMW506), 50 uM): 97% and 101%
Toxicity Data, Percentage Relative to Appropriate DMSO Control ([2]; Exp 2 (SMW507), 1 uM): 111% and 116%
Toxicity Data, Percentage Relative to Appropriate DMSO Control ([2]; Exp 2 (SMW507), 5 uM): 115% and 126%
Toxicity Data, Percentage Relative to Appropriate DMSO Control ([2]; Exp 2 (SMW507), 10 uM): 124% and 133%
Toxicity Data, Percentage Relative to Appropriate DMSO Control ([2]; Exp 2 (SMW507), 25 uM): 112% and 125%
Toxicity Data, Percentage Relative to Appropriate DMSO Control ([2]; Exp 2 (SMW507), 50 uM): 91% and 107%
Relative cell count to DMSO controls, Average (for correlation analysis) [2]: 110.59
